Results reported in US20230147962A1, “FIBROBLAST ACTIVATION PROTEIN LIGANDS FOR TARGETED DELIVERY APPLICATIONS” (PHILOCHEM AG, priority 2020, published 2023).
Where two headings read alike, the source gives them in different places. Blank lines part the entries; values can stand above or below the molecule they belong to. *1 amine or outer side, *2 acyl side, *3 side chain or, on linkers, in order; H or OH if unused. Where a SMILES comes first, the peptide text is derived from it. The star is where a group is joined. Fluorescein(5-Mal) = O=C1OC2(c3ccc(O)cc3Oc3cc(O)ccc32)c2ccc(N3C(=O)CC(*)C3=O)cc21; X2 = N#C[C@@H]1CC(F)(F)CN1C(=O)CNC(=O)c1ccnc2ccc(OCCCN3CCN(*)CC3)cc12; Suc = O=C(CCC(=O)[*:2])[*:1]

Key:
[1] = target: T1, hFAP (Homo sapiens, UniProt Q12884); experiment: Affinity measurement to human FAP by fluorescence polarization; format: binding; conditions: binder 10 nM, read-out: KD to hFAP
T1 construct: made in house; host or cells: CHO cells, transient gene expression, purified from supernatant
T1 sequence (Q12884 with tags, fused parts or gaps): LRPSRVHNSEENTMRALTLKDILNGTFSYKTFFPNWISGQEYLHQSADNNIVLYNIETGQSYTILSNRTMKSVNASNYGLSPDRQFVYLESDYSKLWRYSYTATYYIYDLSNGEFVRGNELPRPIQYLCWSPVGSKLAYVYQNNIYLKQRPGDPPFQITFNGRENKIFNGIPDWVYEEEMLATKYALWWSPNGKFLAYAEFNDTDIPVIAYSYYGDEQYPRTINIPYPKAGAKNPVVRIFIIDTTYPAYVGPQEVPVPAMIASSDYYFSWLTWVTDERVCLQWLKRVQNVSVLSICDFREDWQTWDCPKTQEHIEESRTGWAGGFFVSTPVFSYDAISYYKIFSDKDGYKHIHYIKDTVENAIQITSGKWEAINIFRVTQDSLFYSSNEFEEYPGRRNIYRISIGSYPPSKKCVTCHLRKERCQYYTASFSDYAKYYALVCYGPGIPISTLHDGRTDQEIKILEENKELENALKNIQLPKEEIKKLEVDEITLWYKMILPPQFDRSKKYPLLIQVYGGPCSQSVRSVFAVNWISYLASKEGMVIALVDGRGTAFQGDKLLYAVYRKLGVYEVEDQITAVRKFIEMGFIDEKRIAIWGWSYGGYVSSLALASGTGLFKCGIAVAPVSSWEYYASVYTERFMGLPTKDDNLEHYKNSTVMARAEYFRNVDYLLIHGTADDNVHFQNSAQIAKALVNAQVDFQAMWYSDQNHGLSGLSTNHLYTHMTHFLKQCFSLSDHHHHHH
Protocol: Fluorescence polarization measurements were performed in 384-well plates (non-binding, ps, f-bottom, black, high volume, 30 μL final volume). A stock solution of human FAP (4 μM) was serially diluted with buffer (50 mM Tris, 100 mM NaCl, 1 mM EDTA, pH=7.4), while the final concentration of the binders was kept constant at 10 nM. The measurements were carried out after incubating for 30 min at 37° C. in the dark by fluorescent polarization (FIG. 4).
(§1) Fluorescence polarization experiments were performed in 384-well plates (non-binding, ps, f-bottom, black, high volume, 30 μL final volume). Stock solutions of human FAP (4 μM) and murine FAP (5 μM) were serially diluted with buffer (50 mM Tris, 100 mM NaCl, 1 mM EDTA, pH=7.4), while the final concentration of the binders was kept constant at 10 nM. The fluorescence anisotropy was measured on a TECAN microtiter plate reader. Experiments were performed in triplicate and the mean anisotropy values fitted using Prism 7.

[2] = target: T1, hFAP; experiment: Chromatographic co-elution (PD-10) of ligand-protein complexes, hFAP; format: binding; conditions: PD-10 column, hFAP 2 μM
Protocol: A PD-10 column was pre-equilibrated with assay buffer (50 mM Tris, 100 mM NaCl, 1 mM EDTA, pH=7.4) prior to the loading of the complex. Human FAP (2 μM) and fluorescein-labeled binders (6 μM) were incubated for 30 min at 37° C. in the dark. The mixture was loaded and the column was flushed using the assay buffer. The flow through was collected in 96-well plates and the fluorescence was measured immediately on a TECAN microtiter plate reader, monitoring the fluorescence at an excitation wavelength of 485 nm and an emission wavelength of 535 nm. The protein quantities were estimated by measuring the absorbance at 280 nm using a Nanodrop 2000/2000c spectrophotometer.
A PD-10 column was pre-equilibrated with assay buffer (50 mM Tris, 100 mM NaCl, 1 mM EDTA, pH=7.4) prior to the loading of the complex. A mixture of different proteins (hFAP=2 μM, mFAP=5 μM) and conjugate 15 (100 nM) were incubated and loaded on the column. The mixture was flushed using the assay buffer. The flow through was collected in 96-well plates and the fluorescence intensity was measured immediately on a TECAN microtiter plate reader, monitoring the fluorescence at an excitation wavelength of 485 nm and an emission wavelength of 535 nm. The concentration of the proteins was estimated by measuring the absorbance at 280 nm using a Nanodrop 2000/2000c spectrophotometer.

[3] = target: T1, hFAP; experiment: Dissociation rate measurement by fluorescence polarization; format: binding; conditions: 2.0 nM binder, 1.0 μM human FAP, 37° C., 20 μM fluorescein-free competitor
Protocol: Fluorescence polarization measurements to determine the koff values were performed in 384-well plates (non-binding, ps, f-bottom, black, high volume, 30 μL final volume). The measurements were carried out after pre-incubation of 2.0 nM fluorescein-labelled binders with human FAP at a constant concentration of 1.0 μM at 37° C. in the dark. The dissociation of the fluorescein-labeled compound was induced by adding a large excess of the corresponding fluorescein-free binders (compound P3 obtained in Step 3 of Example 2 and compound H6 obtained in Step 6 of Comparative Example 1, respectively, each at 20 μM final concentration).

[4] = target: T1, hFAP; experiment: In vitro human FAP enzyme IC50 assay (Z-Gly-Pro-AMC substrate); format: biochemical; conditions: for IC50: 20 nM human FAP, 20 μM substrate, read-out: IC50 hFAP inhibition; for hFAP inhibition (in words): FIG. 17, serial dilution from 10^−6 to 10^−11 M
Protocol: (§2) Enzymatic activity of human FAP on the Z-Gly-Pro-AMC substrate was measured at room temperature on a microtiter plate reader, monitoring the fluorescence at an excitation wavelength of 360 nm and an emission wavelength of 465 nm. The reaction mixture contained 20 μM substrate, 20 nM human FAP, assay buffer (50 mM Tris, 100 mM NaCl, 1 mM EDTA, pH=7.4) and inhibitor (ranging between 10^−6 and 10^−11 M) in a total volume of 30 μL.
Inhibitor stock solutions (200 mM) were prepared in DMSO. Immediately prior to the commencement of the experiment, the stocks were further diluted to 10^−6 M in the assay buffer, from which 1:2 serial dilutions were prepared. All measurements were done in triplicate.
The reaction mixture contained 20 μM substrate, 20 nM human FAP (constant), assay buffer (50 mM Tris, 100 mM NaCl, 1 mM EDTA, pH=7.4) and inhibitor (serial dilution from 10^−6 to 10^−11 M, 1:2) in a total volume of 20 μL.
as §2, with “human FAP (constant),” for “human FAP,”, “and tested compound (serial dilution from” for “and inhibitor (ranging between”, “10^−6 to” for “10^−6 and”, “10^−11 M, 1:2)” for “10^−11 M)”, “of 20” for “of 30”

[5] = target: T2, murine FAP (Mus musculus, UniProt P97321); experiment: Affinity measurement to murine FAP by fluorescence polarization; format: binding; conditions: binder 10 nM, read-out: KD to mFAP
T2 sequence (P97321 1-761): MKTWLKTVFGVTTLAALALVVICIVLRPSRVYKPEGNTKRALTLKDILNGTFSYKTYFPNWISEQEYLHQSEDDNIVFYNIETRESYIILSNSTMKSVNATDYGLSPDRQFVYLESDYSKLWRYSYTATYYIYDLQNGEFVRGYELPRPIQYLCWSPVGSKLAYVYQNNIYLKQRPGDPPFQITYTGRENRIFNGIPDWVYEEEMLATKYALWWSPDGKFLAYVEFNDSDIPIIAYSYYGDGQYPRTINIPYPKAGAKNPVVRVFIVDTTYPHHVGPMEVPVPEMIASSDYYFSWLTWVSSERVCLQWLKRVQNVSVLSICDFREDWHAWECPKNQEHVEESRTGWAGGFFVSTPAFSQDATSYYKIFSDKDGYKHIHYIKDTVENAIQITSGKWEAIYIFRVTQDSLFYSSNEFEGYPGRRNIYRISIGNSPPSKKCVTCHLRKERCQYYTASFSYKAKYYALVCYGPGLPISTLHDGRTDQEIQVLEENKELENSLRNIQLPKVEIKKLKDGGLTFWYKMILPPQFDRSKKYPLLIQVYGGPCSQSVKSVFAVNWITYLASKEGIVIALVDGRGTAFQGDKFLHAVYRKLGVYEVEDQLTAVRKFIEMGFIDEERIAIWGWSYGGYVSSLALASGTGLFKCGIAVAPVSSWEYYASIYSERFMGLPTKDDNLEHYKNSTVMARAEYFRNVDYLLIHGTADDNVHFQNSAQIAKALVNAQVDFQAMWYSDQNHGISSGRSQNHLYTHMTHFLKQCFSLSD
Protocol: as §1

[6] = FIG. 5, 30 min preincubation at 37° C.

SMILES: N#C[C@@H]1CC(F)(F)CN1C(=O)CNC(=O)c1ccnc2ccc(OCCCN3CCN(C(=O)c4ccc5c(c4)C(=O)OC54c5ccc(O)cc5Oc5cc(O)ccc54)CC3)cc12 [Haberkorn-fluo, (S)—N-(2-(2-cyano-4,4-difluoropyrrolidin-1-yl)-2-oxoethyl)-6-(3-(4-(3′,6′-dihydroxy-3-oxo-3H-spiro[isobenzofuran-1,9′-xanthene]-5-carbonyl)piperazin-1-yl)propoxy)quinoline-4-carboxamide, reference compound]
Kd [1]: 0.89 nM
complex formation with hFAP in PD-10 co-elution [2]: stable complex is formed
dissociation from hFAP, regression coefficient [3]: −0.07511

SMILES: N#C[C@@H]1CC(F)(F)CN1C(=O)CNC(=O)c1ccnc2c(N)cccc12 [ESV6 ligand]
IC50 [4, 6]: 20.2 nM

SMILES: COc1ccc2nccc(C(=O)NCC(=O)N3CCC[C@H]3C#N)c2c1 [Conjugate 28, (S)-N-(2-(2-cyanopyrrolidin-1-yl)-2-oxoethyl)-6-methoxyquinoline-4-carboxamide]
hFAP inhibition (in words) [4]: lower FAP inhibition property compared with Example 2, P4

SMILES: C[C@H](NC(=O)c1ccnc(CNC(=O)CCC(=O)O)c1)C(=O)N1CC(F)(F)C[C@H]1C#N [Conjugate 29, 4-(((4-(((S)-1-((S)-2-cyano-4,4-difluoropyrrolidin-1-yl)-1-oxopropan-2-yl)carbamoyl)pyridin-2-yl)methyl)amino)-4-oxobutanoic acid]
hFAP inhibition (in words) [4]: does not inhibit FAP proteolytic activity at the concentrations tested in the assay

SMILES: N#C[C@@H]1CC(F)(F)CN1C(=O)CNC(=O)c1ccnc2ccc(OCCCN3CCNCC3)cc12 [Haberkorn ligand]
IC50 [4, 6]: 24.6 nM

IC50 ([4]; FIG. 9, total volume 20 μL): 33.5 nM
SMILES: N#C[C@@H]1CC(F)(F)CN1C(=O)CNC(=O)c1ccnc2cc(Nc3ccccc3)ccc12 [compound 24, (S)-N-(2-(2-cyano-4,4-difluoropyrrolidin-1-yl)-2-oxoethyl)-7-(phenylamino)quinoline-4-carboxamide]

SMILES: N#C[C@@H]1CC(F)(F)CN1C(=O)CNC(=O)c1ccnc2ccc(OCCCN3CCN(C(=O)CCC(=O)N[C@@H](CC(=O)O)C(=O)N[C@@H](CCCCN)C(=O)N[C@@H](CC(=O)O)C(=O)N[C@@H](CSC4CC(=O)N(c5ccc6c(c5)C(=O)OC65c6ccc(O)cc6Oc6cc(O)ccc65)C4=O)C(=O)O)CC3)cc12 (stereo partly shown) [conjugate 25, reference compound] ({X2-Suc}-DKDC(Fluorescein(5-Mal))-OH)
Kd [1]: 1.02 nM
Kd [5]: 30.9 nM

SMILES: N#C[C@@H]1CC(F)(F)CN1C(=O)CNC(=O)c1ccnc2c(N)cccc12 [Conjugate P3, (S)-8-amino-N-(2-(2-cyano-4,4-difluoropyrrolidin-1-yl)-2-oxoethyl)quinoline-4-carboxamide]
IC50 [4, 6]: 20.2 nM

SMILES: N#C[C@@H]1CC(F)(F)CN1C(=O)CNC(=O)c1ccnc2c(NC(=O)CCC(=O)NCCOCCOCCNC(=S)Nc3ccc4c(c3)C(=O)OC43c4ccc(O)cc4Oc4cc(O)ccc43)cccc12 [ESV6-fluo, (S)—N1-(4-((2-(2-cyano-4,4-difluoropyrrolidin-1-yl)-2-oxoethyl)carbamoyl)quinolin-8-yl)-N4-(2-(2-(2-(3-(3′,6′-dihydroxy-3-oxo-3H-spiro[isobenzofuran-1,9′-xanthen]-5-yl)thioureido)ethoxy)ethoxy)ethyl)succinamide]
Kd [1]: 0.78 nM
complex formation with hFAP in PD-10 co-elution [2]: stable complex is formed
dissociation from hFAP, regression coefficient [3]: −0.09356

SMILES: N#C[C@@H]1CC(F)(F)CN1C(=O)CNC(=O)c1ccnc2ccc(OCCCN3CCNCC3)cc12 [Conjugate H6, (S)—N-(2-(2-cyano-4,4-difluoropyrrolidin-1-yl)-2-oxoethyl)-6-(3-(piperazin-1-yl)propoxy)quinoline-4-carboxamide]
IC50 [4, 6]: 24.6 nM

IC50 ([4]; FIG. 9, total volume 20 μL): 16.8 nM
SMILES: N#C[C@@H]1CC(F)(F)CN1C(=O)CNC(=O)c1ccnc2c(NC(=O)CCC(=O)O)cccc12 [Conjugate P4, (S)-4-((4-((2-(2-cyano-4,4-difluoropyrrolidin-1-yl)-2-oxoethyl)carbamoyl)quinolin-8-yl)amino)-4-oxobutanoic acid]
